From the RepoRT retention time repository (doi:10.1016/j.foodchem.2021.129757)
Where a name gives a salt, the structure may show the parent alone.

How the values were obtained:
Details in all cases: stereoisomer not certain
[1] = RP, Agilent ZORBAX RRHD Eclipse Plus C18, 50 × 2.1 mm, 1.8 µm, 30 °C, 0.4 mL/min, estimated dead time 0.28 min; A: water + 0.1% formic acid, pH 3; B: acetonitrile + 0.1% formic acid, pH 3; gradient (min/%B) 0/1 5/10 8/25 9.1/99 10/99 12/99
[2] = RP, Agilent ZORBAX RRHD Eclipse Plus C18, 50 × 2.1 mm, 1.8 µm, 30 °C, 0.4 mL/min, estimated dead time 0.28 min; A: water + 0.1% formic acid, pH 3; B: acetonitrile + 0.1% formic acid, pH 3; gradient (min/%B) 0/1 5/10 8/25 9.1/99 10/99 12/1
[3] = RP, Waters ACQUITY UPLC HSS T3, 100 × 2.1 mm, 50 °C; A: water + 0.1% formic acid, pH 3; B: 30% methanol + 70% acetonitrile + 0.1% formic acid, pH 3; gradient (min/%B) 0/5 1/8 2/15 3/40 4/70 4.5/100 5/100 6.4/100 6.6/5 6.8/5 7/5
[4] = RP, Agilent InfinityLab Poroshell 120 EC-C18, 100 × 3 mm, 2.7 µm, 25 °C, 0.4 mL/min, estimated dead time 1.1 min; A: water + 0.1% formic acid, pH 3; B: acetonitrile + 0.1% formic acid, pH 3; gradient (min/%B) 0/5 10/25 20/40 24/90 25/90 26/5 30/5
[5] = RP, Waters ACQUITY UPLC BEH C18, 100 × 2.1 mm, 1.7 µm, 65 °C, 0.4 mL/min, estimated dead time 0.55 min; A: water + 0.1% formic acid, pH 3; B: 80% acetonitrile + 20% acetone + 0.1% formic acid, pH 3; gradient (min/%B) 0/0 5/100 5.5/0 6/0
[6] = RP, Agilent ZORBAX Eclipse XDB-C18, 100 × 2.1 mm, 1.8 µm, 50 °C, 0.4 mL/min, estimated dead time 0.55 min; A: water + 0.1% formic acid, pH 3; B: methanol + 0.1% formic acid, pH 3; gradient (min/%B) 0/2 10/100 14.5/100 14.51/2 16.5/2
[7] = RP, Waters ACQUITY UPLC BEH Shield RP18, 150 × 2.1 mm, 1.7 µm, 40 °C, 0.4 mL/min, estimated dead time 0.83 min; A: water + 0.1% formic acid, pH 3; B: acetonitrile + 0.1% formic acid, pH 3; gradient (min/%B) 0/0 30/50 31/100 37/100 37.1/0
[8] = RP, Waters ACQUITY UPLC HSS T3, 100 × 2.1 mm, 1.8 µm, 30 °C, 0.4 mL/min, estimated dead time 0.55 min; A: water + 0.1% formic acid, pH 3; B: acetonitrile + 0.1% formic acid, pH 3; gradient (min/%B) 0/0 2/0 15/100 22/100 22.1/0 26/0

SMILES | LC retention time [1] [min] | LC retention time [2] [min] | further results
CC(Oc1ccc(O)cc1)C(=O)O (single isomer, unassigned; (+)) [(+)-2-(4-Hydroxyphenoxy)propionic acid] | 3.73 | 6.31 | 
O=C(O)C1CCCCN1 (single isomer, unassigned; (+)) [(+)-Pipecolinic acid] |  |  | LC retention time [3]: 0.617 min
COc1cc(CC(CO)C(CO)Cc2ccc(O)c(OC)c2)ccc1O (single isomer, unassigned; (-)) [(-)-Secoisolariciresinol] |  |  | LC retention time [4]: 11.5 min; LC retention time [5]: 2.4 min
O=Cc1ccccc1O [2-Hydroxybenzaldehyde] |  |  | LC retention time [3]: 3.72 min
COc1ccc(C2Oc3cc(O)cc(O)c3CC2O)cc1O (stereo unspecified) [4'-O-methylepicatechin] |  | 7.85 | 
Nc1ccc(C(=O)O)cc1 [4-Aminobenzoic acid] |  |  | LC retention time [6]: 2.08 min; LC retention time [5]: 1.53 min
Cc1ccc(OS(=O)(=O)O)c(O)c1 [4-Methylcatechol-1-O-sulfate] | 3.83 | 5.96 | 
C=C1C(=O)OC2C1CCC(C)=C1C(=O)C=C(COC(=O)C(=O)O)C12 (stereo unspecified) [8-deoxylactucin-15-oxalate] |  |  | LC retention time [7]: 14.5 min
C=C1C(=O)OC2C1CCC(C)=C1C(=O)C=C(CO)C12 (stereo unspecified) [8-deoxylactucin] |  |  | LC retention time [7]: 15.5 min
O=C(O)C=Cc1ccc(O)c(OS(=O)(=O)O)c1 [Caffeic acid-3-O-sulfate] | 3.99 | 4.86 | 
COc1ccc(CCC(=O)O)cc1OS(=O)(=O)O [Dihydro isoferulic acid-3-O-sulfate] | 5.06 | 6.39 | 
CC1=C2C(=O)C=C(COC(=O)C(=O)O)C2C2OC(=O)C(C)C2CC1 (stereo unspecified) [Dihydro-8-deoxylactucin-15-oxalate] |  |  | LC retention time [7]: 14.9 min
CC1=C2C(=O)C=C(CO)C2C2OC(=O)C(C)C2CC1 (stereo unspecified) [Dihydro-8-deoxylactucin] |  |  | LC retention time [7]: 14.5 min
COc1ccc(CCC(=O)O)cc1O [Dihydroisoferulic acid] | 5.06 | 7.68 | 
O=C1c2c(O)cc(O)cc2OC(c2ccc(O)cc2)C1O (stereo unspecified) [Dihydrokaempferol] |  |  | LC retention time [7]: 15.3 min
CC1=C2C(=O)C=C(COC(=O)C(=O)O)C2C2OC(=O)C(C)C2C(O)C1 (stereo unspecified) [Dihydrolactucin-15-oxalate] |  |  | LC retention time [7]: 9.7 min
CC1=C2C(=O)C=C(CO)C2C2OC(=O)C(C)C2C(O)C1 (stereo unspecified) [Dihydrolactucin] |  |  | LC retention time [7]: 10.5 min
CC1=C2C(=O)C=C(COC(=O)C(=O)O)C2C2OC(=O)C(C)C2C(OC(=O)Cc2ccc(O)cc2)C1 (stereo unspecified) [Dihydrolactucopicrin-15-oxalate] |  |  | LC retention time [7]: 17.3 min

SMILES | LC retention time [1] [min] | LC retention time [2] [min] | further results
O=C1OCC(Cc2cccc(O)c2)C1Cc1cccc(O)c1 (stereo unspecified) [Enterolactone] |  |  | LC retention time [4]: 17.4 min; LC retention time [5]: 2.88 min
O=C(O)C1OC(Oc2cc(O)c3c(=O)c(-c4ccc(O)cc4)coc3c2)C(O)C(O)C1O (stereo unspecified) [Genistein 7-O-glucuronide] |  |  | LC retention time [4]: 9.6 min; LC retention time [5]: 2.1 min
CC12C=Cc3occc3C1CCC13CC(CCC12)C(O)(CO)C3 (stereo unspecified) [Kahweol] |  |  | LC retention time [5]: 3.73 min
C=C1C(=O)OC2C3C(CO)=CC(=O)C3=C(C)CC(O)C12 (stereo unspecified) [Lactucin] |  |  | LC retention time [7]: 11.2 min
C=C1C(=O)OC2C3C(CO)=CC(=O)C3=C(C)CC(OC(=O)Cc3ccc(O)cc3)C12 (stereo unspecified) [Lactucopicrin] |  |  | LC retention time [7]: 18.4 min
CC(O)(CCO)CC(=O)[O-] (stereo unspecified) [Mevalonic acid] |  |  | LC retention time [5]: 1.35 min
O=C(O)Cc1ccccc1 [Phenylacetic acid] | 4.65 | 7.64 | 
O=C(O)C1OC(Oc2cc(O)c3c(=O)c(O)c(-c4ccc(O)c(O)c4)oc3c2)C(O)C(O)C1O (stereo unspecified) [Quercetin-7-O-glucuronide] | 8.38 | 7.84 | 
O=C(O)c1ccc2ccccc2n1 [Quinaldic acid] |  |  | LC retention time [5]: 1.68 min
Cc1cc2nc3c(=O)[nH]c(=O)nc-3n(CC(O)C(O)C(O)CO)c2cc1C (stereo unspecified) [Riboflavin] |  |  | LC retention time [6]: 4.17 min; LC retention time [5]: 1.73 min
COc1ccc(-c2oc3cc(O)cc(O)c3c(=O)c2O)cc1O [Tamarixetin] |  |  | LC retention time [8]: 11.9 min; LC retention time [5]: 2.96 min
Cn1c(=O)c2[nH]cnc2n(C)c1=O [Theophylline] |  |  | LC retention time [6]: 3.05 min; LC retention time [5]: 1.5 min
NCCc1c[nH]c2ccccc12 [Tryptamine] |  |  | LC retention time [6]: 2.51 min; LC retention time [5]: 1.51 min
COc1cc(C(O)C(=O)O)ccc1O (stereo unspecified) [Vanillylmandelic acid] |  |  | LC retention time [6]: 1.65 min; LC retention time [5]: 1.42 min
O=c1c(O)c(-c2ccccc2)oc2cc(O)cc(O)c12 [galangin] |  |  | LC retention time [7]: 29.4 min
C=C1C(=O)OC2C3C(COC(=O)C(=O)O)=CC(=O)C3=C(C)CC(O)C12 (stereo unspecified) [lactucin-15-oxalate] |  |  | LC retention time [7]: 10.4 min
C=C1C(=O)OC2C3C(COC(=O)C(=O)O)=CC(=O)C3=C(C)CC(OC(=O)Cc3ccc(O)cc3)C12 (stereo unspecified) [lactucopicrin-15-oxalate] |  |  | LC retention time [7]: 17.2 min
CCCOC(=O)c1cc(O)c(O)c(O)c1 [propyl gallate] |  |  | LC retention time [7]: 12.8 min

Now from value to molecule, other results behind:

LC retention time [1] [min] | LC retention time [2] [min] | SMILES | further results
5.42 | 6.09 | O=C1CCC(Cc2ccc(OS(=O)(=O)O)c(O)c2)O1 (stereo unspecified) | 
4.65 |  | Oc1cc(O)c2c(c1)OC(c1ccc(O)c(O)c1)C(O)C2 (single isomer, unassigned; (+)) [(+)-Catechin] | 
1.96 | 4 | COc1cccc(OS(=O)(=O)O)c1O [1-Methyl-pyrogallol-O-sulfate] | 
1.12 | 2.89 | COc1c(O)cccc1OS(=O)(=O)O [2-Methyl-pyrogallol-O-sulfate] | 
 | 8.98 | COc1ccc(C(=O)O)c(O)c1 [2-hydroxy-4-methoxybenzoic acid] | 
 | 5.91 | O=Cc1cccc(O)c1 [3-Hydroxybenzaldehyde] | LC retention time [6]: 3.72 min
1.88 | 3.58 | O=C(O)CNC(=O)c1cccc(O)c1 [3-Hydroxyhippuric acid] | LC retention time [5]: 1.58 min
4.67 | 5.69 | O=C(O)Cc1cccc(O)c1 [3-hydroxyphenylacetic acid] | LC retention time [6]: 3.55 min
3.83 | 5.96 | Cc1ccc(O)c(OS(=O)(=O)O)c1 [4-Methylcatechol-2-O-sulfate] | 
4.14 | 5.23 | O=C(O)C=Cc1ccc(O)c(OC2OC(C(=O)O)C(O)C(O)C2O)c1 (stereo unspecified) [Caffeic acid-3-glucuronide] | 
3.97 | 3.15 | Oc1ccccc1O [Catechol] | LC retention time [7]: 4.35 min; LC retention time [5]: 1.75 min
5.15 | 5.64 | COc1cc(CCC(=O)O)ccc1OC1OC(C(=O)O)C(O)C(O)C1O (stereo unspecified) [Dihydroferulic acid-4-O-glucuronide] | 
4.07 | 7.16 | COc1cc(CCC(=O)O)ccc1O [Dihydroferulic acid] | LC retention time [7]: 8.81 min
2.12 | 4.48 | COc1cc(CC(=O)O)ccc1OS(=O)(=O)O [Homovanillic acid sulfate] | LC retention time [5]: 1.45 min
1.99 | 5.2 | COc1ccc(C(=O)O)cc1O [Isovanillic acid] | 
0.774 | 1.56 | O=S(=O)(O)Oc1cccc(O)c1O [Pyrogallol-1-O-sulfate] | 
1.44 | 2.66 | Oc1cccc(O)c1 [Resorcinol] | 
5.5 | 5.28 | O=C(O)C=Cc1ccc(OS(=O)(=O)O)c(O)c1 [caffeic acid-4-O-sulfate] | 
3.78 | 5.25 | O=C(O)C=Cc1ccc(OS(=O)(=O)O)cc1 [p-Coumaric acid 4-O-sulfate] | 
1.85 | 3.8 | O=C(O)C=Cc1ccc(OC2OC(C(=O)O)C(O)C(O)C2O)cc1 (stereo unspecified) [p-Coumaric acid-4-O-glucuronide] | 
